What was measured:
[1] = Human Hepatocyte Stability; assay type: in vitro ADME; settings: human hepatocytes 0.5×10^6 cells/mL, 120 min; for half-life at 1 μM: read-out: T1/2 (hepatic); for microsomal CLint at 1 μM: read-out: in vitro CLint (hepatic)
Procedure: The tested compound was incubated in duplicate with incubation media (Williams' Medium E with 1× GlutaMAX) containing human hepatocytes (0.5×10^6 cells/mL). These incubations were carried out at a final test concentration of 1 μM over a total incubation period of 120 minutes. Samples were taken at 0, 15, 30, 60, 90 and 120 min and the reaction was terminated by addition of acetonitrile containing internal standard (100 nM alprazolam, 200 nM labetalol, 200 nM caffeine and 200 nM diclofenac). Verapamil was used as the positive control in this study. The samples were analyzed by UPLC-MS/MS to determine the concentration of the tested compound and the percentage remaining, intrinsic clearance (in vitro CLint) and half-life (t½) values were calculated.
Chromatographic analyses were performed on a Shimadzu UPLC apparatus (Kyoto, Japan) consisting of a gradient pump (model LC-30AD), an automatic injector (model HTC PAL System) and an on-line degasser (model DGU-20A5R). Detection was a triple quadrupole tandem mass spectrometer equipped with a turbo ion spray interface (API 4000/Triple Quad 4500/Triple Quad 5500/Triple Quad 6500). Data acquisition and integration were carried out with LC-MS software (Analyst 1.6) linked directly to the LC-MS/MS system. Chromatographic separations were achieved on a XSelect Hss T3 2.5μ (2.1×30 mm) Column. The mobile phase was 0.1% formic acid in water (A) and 0.1% formic acid in acetonitrile (B). The flow rate was 1.0 mL/min and column was maintained at 40° C.
Half-life (T1/2) data is measured in minutes, and in Table B2, the data is grouped into categories of by the following rules: • T1/2 (hepatic): A=200+; B=100 to 200; C=50 to 100; and D<50.
In vitro clearance (CLint) data is measured in μL/min/mg prot, and in Table B3, the data is grouped into categories of by the following rules: • CLint (microsomal): A<5; B=5 to 10; C=10 to 20; and D=20+.

[2] = target: T1, EP2 receptor (Homo sapiens, UniProt P43116); test: EP2 Potency Assay (cAMP TR-FRET, CHO-K1 cells transfected with EP2 receptor, PGE2 at EC80); assay type: cell-based; settings: CHO-K1 cells expressing EP2, prostaglandin E2 at EC80, read-out: EP2 Potency (IC50 category)
T1 construct: expressed in transfected cells; host or cells: CHO-K1 cells (ATCC), transient transfection with FuGENE 6
T1 sequence (P43116 whole entry): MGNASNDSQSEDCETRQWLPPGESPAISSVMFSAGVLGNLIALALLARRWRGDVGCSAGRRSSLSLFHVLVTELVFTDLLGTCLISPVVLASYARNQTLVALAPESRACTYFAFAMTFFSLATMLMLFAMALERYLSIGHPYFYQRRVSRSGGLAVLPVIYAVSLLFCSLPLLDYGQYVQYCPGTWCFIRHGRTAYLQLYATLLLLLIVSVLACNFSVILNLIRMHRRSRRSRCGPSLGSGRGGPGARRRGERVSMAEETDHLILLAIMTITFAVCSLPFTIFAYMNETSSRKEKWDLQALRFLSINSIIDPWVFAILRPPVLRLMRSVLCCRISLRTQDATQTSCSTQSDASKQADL
Method in brief: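 CHO-K1 cells transiently transfected with EP2 and seeded 24 h after transfection. IC50 from curve fit of percent inhibition versus concentration.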

| Structure (SMILES) | half-life at 1 μM [1] | microsomal CLint at 1 μM [1] | IC50 [2] |
| --- | --- | --- | --- |
| COc1ncc(CN2CCOc3c(Cl)cc(-n4ccc5c(F)c(F)ccc54)cc3C2)cn1 [Compound 25] | 1.67 to 3.33 h | 10 to 20 µL/min/mg | 100 to 500 nM |
| COCc1ncc(CN2CCOc3c(Cl)cc(-n4ccc5cc(F)ccc54)cc3C2)cn1 [Compound 142] | > 3.33 h | 5 to 10 µL/min/mg | 100 to 500 nM |
| O=C(O)c1ncc(CN2CCOc3c(Cl)cc(-n4ccc5cc(F)ccc54)cc3C2)cn1 [Compound 144, 5-{[9-chloro-7-(5-fluoroindol-1-yl)-3,5-dihydro-2H-1,4-benzoxazepin-4-yl]methyl}pyrimidine-2-carboxylic acid] | > 3.33 h | < 5 µL/min/mg | < 100 nM |
| Cc1c(-n2ccc3cc(F)ccc32)cc(Cl)c2c1CN(Cc1cc[nH]c(=O)c1)CCO2 [Compound 238] | – | – | 1000 to 5000 nM |
| COCC1COc2c(Cl)cc(-n3ccc4cc(F)ccc43)cc2CN1Cc1cc[nH]c(=O)c1 (stereo not shown) [Compound 239] | – | – | 1000 to 5000 nM |
| O=c1cc(CN2CCc3c(Cl)cc(-n4ccc5cc(F)ccc54)cc3C2)cc[nH]1 [Compound 240] | – | – | > 5000 nM |
| O=c1cc(CN2CCOc3c(Cl)cc(-n4ccc5cc(F)ccc54)cc32)cc[nH]1 [Compound 241] | – | – | > 5000 nM |

More lines, now with the values ahead:

| half-life at 1 μM [1] | microsomal CLint at 1 μM [1] | IC50 [2] | Structure (SMILES) |
| --- | --- | --- | --- |
| 1.67 to 3.33 h | 5 to 10 µL/min/mg | < 100 nM | Cc1[nH]c(=O)ncc1CN1CCOc2c(Cl)cc(-n3ccc4cc(F)ccc43)cc2C1 [Compound 156] |
| 1.67 to 3.33 h | 5 to 10 µL/min/mg | < 100 nM | O=c1cc(CN2CCOc3c(Cl)cc(-n4ccc5cc(F)ccc54)cc3C2)cn[nH]1 [Compound 169, 5-{[9-chloro-7-(5-fluoroindol-1-yl)-3,5-dihydro-2H-1,4-benzoxazepin-4-yl]methyl}-2H-pyridazin-3-one] |
| > 3.33 h | < 5 µL/min/mg | 100 to 500 nM | O=C(O)c1cc(CN2CCOc3c(Cl)cc(-n4ccc5cc(F)ccc54)cc3C2)ccn1 [Compound 185, 4-{[9-chloro-7-(5-fluoroindol-1-yl)-3,5-dihydro-2H-1,4-benzoxazepin-4-yl]methyl}pyridine-2-carboxylic acid] |
| 0.833 to 1.67 h | > 20 µL/min/mg | 100 to 500 nM | Fc1ccc2c(ccn2-c2cc(Cl)c3c(c2)CN(Cc2cc[nH]c(=S)c2)CCO3)c1 [Compound 189, 4-{[9-chloro-7-(5-fluoroindol-1-yl)-3,5-dihydro-2H-1,4-benzoxazepin-4-yl]methyl}-1H-pyridine-2-thione] |
| 0.833 to 1.67 h | 10 to 20 µL/min/mg | < 100 nM | O=c1[nH]ccc(CN2CCOc3c(Cl)cc(-n4ccc5cc(F)ccc54)cc3C2)c1F [Compound 193] |
| 1.67 to 3.33 h | 10 to 20 µL/min/mg | < 100 nM | Cc1c(CN2CCOc3c(Cl)cc(-n4ccc5cc(F)ccc54)cc3C2)cc[nH]c1=O [Compound 194, 4-{[9-chloro-7-(5-fluoroindol-1-yl)-3,5-dihydro-2H-1,4-benzoxazepin-4-yl]methyl}-3-methyl-1H-pyridin-2-one] |
